Test results as given in US11225465B2, “Albicidin derivatives, their use and synthesis” (TECHNISCHE UNIVERSITÄT BERLIN, priority 2017, dated 2022).
Values after ≈ are worked out from the molar mass of the structure shown.

What was measured:
Bacillus subtilis DSM10 = assay: Microdilution assay, MIC; format: cell-based; settings: DSM10, 20 h, read-out: MIC B. subtilis DSM10
Experimental: (§1) The tests were performed using the micro dilution method.
(§2) The determination of MIC values was performed according to the ninth edition of the Approved Standard M07-A9 (CLSI. Methods for Dilution Antimicrobial Susceptibility Tests for Bacteria That Grow Aerobically; Approved Standard—Ninth Edition. CLSI document M07-A9. Wayne, Pa.: Clinical and Laboratory Standards Institute; 2012.)
(§3) The test was carried out for four different bacterial strains (E. coli DSM 1116 [gram negative], B. subtilis DSM 10 [gram positive], M. luteus DSM 1790 [gram positive], S. typhimurium TA100 [gram negative]). 20 μL of cryo stock of each strain were inoculated in 20 mL of LB media (Lysogeny broth: 10 g/L peptone, 5 g/L yeast extract, 5 g/L NaCl) followed by incubation over night at 37° C., 200 rpm. The test inoculum was adjusted by the 0.5 McFarland Standard (OD625 from 0.08 to 0.1). Within 15 min of preparation, the adjusted inoculum suspension was diluted in MHBII media (BBL T M Mueller-Hinton Broth II, Becton, Dickinson and Company, N.J./USA) so that each well contained approximately 5×10^5 CFU/mL in a final volume of 100 μL. 95 μL of the inoculum were applied per well and 5 μL of the (diluted) antibiotic substance were added.
(§4) Previously the dry antibiotic compounds were dissolved in DMSO (100%) with a concentration of 2560 μg/mL and the resulting stock solutions were further diluted in DMSO (100%). 5 μL of each antibiotic dilution were applied to the microdilution tray to reach final concentrations of 64 μg/mL to 0.008 μg/mL. One row of each well plate was left as a growth control without antibiotic substances and another row of the microdilution tray was used as sterility control (only MHB II-media). The antimicrobial effect of the solvent (DMSO) was tested by adding 5 μL DMSO to several wells without antibiotics.
(§5) Purity check and cell titer control were performed according to International Standard M07-A9 on Mueller-Hinton II Agar (Mueller Hinton II Broth, 15 g/L agar-agar).
(§6) Both microdilution trays and agar plates were incubated at 37° C. for 20 h and subsequently analyzed visually.

E. coli DSM 1116 = assay: Microdilution assay, MIC; format: cell-based; settings: Escherichia coli, DSM1116, 20 h, read-out: MIC E. coli DSM1116
Experimental: as §1, §2, §3, §4, §5, §6

[1] = tested on: Micrococcus luteus DSM1790; assay: Microdilution assay, MIC; format: cell-based; settings: DSM1790, 20 h, read-out: MIC M. luteus DSM1790
Experimental: as §1, §2, §3, §4, §5, §6

S. typhimurium TA100 = assay: Microdilution assay, MIC; format: cell-based; settings: Salmonella enterica, 20 h, read-out: MIC S. typhimurium TA100
Experimental: as §1, §2, §3, §4, §5, §6

[2] = tested on: Escherichia coli ATCC 25922; assay: MHK against further strains (Table 2); format: cell-based; settings: Nr. 1 Escherichia coli ATCC 25922; KBE/ml 2.80E+05
Experimental: as §1, §2

[3] = tested on: Pseudomonas aeruginosa ATCC 27853; assay: MHK against further strains (Table 2); format: cell-based; settings: Nr. 6 Pseudomonas aeruginosa ATCC 27853; KBE/ml 5.60E+05
Experimental: as §1, §2

[4] = tested on: Staphylococcus aureus ATCC 29213; assay: MHK against further strains (Table 2); format: cell-based; settings: Nr. 8 Staphylococcus aureus ATCC 29213; KBE/ml 6.60E+05
Experimental: as §1, §2

[5] = tested on: Escherichia coli ATCC 25922; settings: n.a. for the compounds; cited from earlier work
[6] = tested on: Pseudomonas aeruginosa ATCC 27853; settings: n.a. for the compounds; cited from earlier work
[7] = tested on: Staphylococcus aureus ATCC 29213; settings: n.a. for the compounds; cited from earlier work

SMILES | MIC (Bacillus subtilis DSM10) [µg/mL] | MIC (E. coli DSM 1116) [µg/mL] | MIC [1] [µg/mL] | MIC (S. typhimurium TA100) [µg/mL] | MHK [2] [mg/L] | MHK [3] [mg/L] | MHK [4] [mg/L] | MHK range (unlabelled line below the ATCC strain) [5] [mg/L] | MHK range (unlabelled line below the ATCC strain) [6] [mg/L] | MHK range (unlabelled line below the ATCC strain) [7] [mg/L]
COc1c(NC(=O)c2ccc(NC(=O)c3ccc(NC(=O)[C@H](CC#N)NC(=O)c4ccc(NC(=O)/C(C)=C/c5ccc(O)cc5)cc4)cc3)c(OC)c2O)ccc(C(=O)O)c1O [Albicidin] | 250 (≈ 297 µM) | 63 (≈ 74.7 µM) | 1000 (≈ 1190 µM) | 63 (≈ 74.7 µM) |  |  |  |  |  | 
O=C(O)c1cn(C2CC2)c2cc(N3CCNCC3)c(F)cc2c1=O [CIP, reference compound] |  |  |  |  | 0.015 | 0.5 | 0.5 | 0.004 to 0.015 | 0.25 to 1 | 0.12 to 0.5
COc1c(NC(=O)c2ccc(NC(=O)c3ccc(NC(=O)C(CN4CCOCC4)NC(=O)c4ccc(NC(=O)/C(C)=C/c5ccc(O)cc5)cc4)cc3)c(OC)c2O)ccc(C(=O)O)c1O [Compound 4, L-Morpholino-Albicidin] | 250 (≈ 277 µM) | 500 (≈ 554 µM) | 8000 (≈ 8860 µM) | 63 (≈ 69.8 µM) |  |  |  |  |  | 
COc1c(NC(=O)c2ccc(NC(=O)c3ccc(NC(=O)C(Cc4cn(C)cn4)NC(=O)c4ccc(NC(=O)/C(C)=C/c5ccc(O)cc5)cc4)cc3)c(OC)c2O)ccc(C(=O)O)c1O [Compound 5, L-Methyl-His-Albicidin] | 500 (≈ 557 µM) | 125 (≈ 139 µM) | 4000 (≈ 4450 µM) | 63 (≈ 70.2 µM) |  |  |  |  |  | 
COc1c(NC(=O)c2ccc(NC(=O)c3ccc(NC(=O)C4(NC(=O)c5ccc(NC(=O)/C(C)=C/c6ccc(O)cc6)cc5)CCN(C)CC4)cc3)c(OC)c2O)ccc(C(=O)O)c1O [Compound 6, N-Methylpiperidino-Albicidin] | ≥ 8000 | 2000 (≈ 2260 µM) | ≥ 8000 | 2000 (≈ 2260 µM) |  |  |  |  |  | 
COc1c(NC(=O)c2ccc(NC(=O)c3ccc(NC(=O)[C@H](Cc4ccccn4)NC(=O)c4ccc(NC(=O)/C(C)=C/c5ccc(O)cc5)cc4)cc3)c(OC)c2O)ccc(C(=O)O)c1O [Compound 7, L-2-Py-Albicidin] | 250 (≈ 279 µM) | 250 (≈ 279 µM) | 2000 (≈ 2230 µM) | 125 (≈ 140 µM) |  |  |  |  |  | 
COc1c(NC(=O)c2ccc(NC(=O)c3ccc(NC(=O)[C@H](Cc4cccnc4)NC(=O)c4ccc(NC(=O)/C(C)=C/c5ccc(O)cc5)cc4)cc3)c(OC)c2O)ccc(C(=O)O)c1O [Compound 8] | 500 (≈ 559 µM) | 250 (≈ 279 µM) | 1000 (≈ 1120 µM) |  |  |  |  |  |  | 
COc1c(NC(=O)c2ccc(NC(=O)c3ccc(NC(=O)[C@H](Cc4ccncc4)NC(=O)c4ccc(NC(=O)/C(C)=C/c5ccc(O)cc5)cc4)cc3)c(OC)c2O)ccc(C(=O)O)c1O [Compound 9] | 2000 (≈ 2230 µM) | 500 (≈ 559 µM) | 8000 (≈ 8940 µM) | 125 (≈ 140 µM) |  |  |  |  |  | 
C#CCOc1ccc(/C=C(\C)C(=O)Nc2ccc(C(=O)NC(CC3(C)N=N3)C(=O)Nc3ccc(C(=O)Nc4ccc(C(=O)Nc5ccc(C(=O)O)c(O)c5OC)c(O)c4OC)cc3)cc2)cc1 (centres unmarked) [Compound 10] | 125 (≈ 137 µM) | 63 (≈ 69.2 µM) | 250 (≈ 275 µM) | ≤ 16 |  |  |  |  |  | 
C#CCOc1ccc(C(=O)Nc2ccc(C(=O)NC(CC3(C)N=N3)C(=O)Nc3ccc(C(=O)Nc4ccc(C(=O)Nc5ccc(C(=O)O)c(O)c5OC)c(O)c4OC)cc3)cc2)cc1 (centres unmarked) [Compound 11] | 125 (≈ 144 µM) | 63 (≈ 72.4 µM) | 125 (≈ 144 µM) | 16 (≈ 18.4 µM) |  |  |  |  |  | 
C/C(=C\c1ccc(O)cc1)C(=O)Nc1ccc(C(=O)N[C@@H](CC#N)C(=O)Nc2ccc(C(=O)Nc3ccc(C(=O)Nc4ccc(C(=O)O)c(O)c4)c(O)c3)cc2)cc1 [Compound 12, HMZS-pABA-L-Cya-pABA-HpABA-HpABA-OH] |  | 16000 (≈ 20400 µM) | 32000 (≈ 40900 µM) | 4000 (≈ 5110 µM) |  |  |  |  |  | 
